This is an account of results in the supplement of paper PMC10307832.

Assay in all cases: relative viability (nuclei count vs DMSO), 5 days (fraction); higher = more cells survive
Compound in test [1]: O=C(O)C(Cc1ccccc1[N+](=O)[O-])=NNc1nc(-c2ccc(Cl)c(Cl)c2)cs1 (mixture of isomers) [4EGI-1] + N=C(N)NC(=N)NCCc1ccccc1 [Phenformin] (partner 250 µM)
The method, boiled down:
(§1)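 Relative viability was taken as the ratio of nuclei in treated wells to nuclei in vehicle wells. Lung cancer cell lines in 1536-well plates received compounds by pin tool one day after seeding, either one drug alone or a fixed anchor-drug dose plus five library-drug doses (not always all listed) in √10 steps. Nuclei were counted on 4× images after 5 days of treatment, and values are medians of duplicate plates.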

Compound in test [2]: O=C(O)C(Cc1ccccc1[N+](=O)[O-])=NNc1nc(-c2ccc(Cl)c(Cl)c2)cs1 (mixture of isomers) [4EGI-1] + CC(=O)Nc1cccc(-n2c(=O)n(C3CC3)c(=O)c3c(Nc4ccc(I)cc4F)n(C)c(=O)c(C)c32)c1 [Trametinib] (partner 0.02 µM)
The method, boiled down: as §1

Compound in test [3]: O=C(O)C(Cc1ccccc1[N+](=O)[O-])=NNc1nc(-c2ccc(Cl)c(Cl)c2)cs1 (mixture of isomers) [4EGI-1] + Cc1nc(NC(=O)N2CCC[C@H]2C(N)=O)sc1-c1ccnc(C(C)(C)C(F)(F)F)c1 [Alpelisib] (partner 2 µM)
The method, boiled down:
as §1

Compound in test [4]: CN1CCN(CC1)C2=CC(=C(C=C2)NC3=NC=C4C(=N3)N(C5=CC=CC=C5C(=O)N4C)C)OC [XMD8-85] + CS(=O)(=O)CCNCc1ccc(-c2ccc3ncnc(Nc4ccc(OCc5cccc(F)c5)c(Cl)c4)c3c2)o1 [Lapatinib] (partner 2 µM)
The method, boiled down:
as §1

As to NCI-H1792, the relative viability in test [1] (first compound 0.5 µM) was 0.285; in test [1] (first compound 1.581 µM), 0.462; in test [1] (first compound 5 µM) it was 0.41; in test [1] (first compound 15.81 µM), 0.322; in test [1] (first compound 50 µM) it was 0.378; in test [2] (first compound 0.5 µM), 0.524. The relative viability in test [2] (first compound 1.581 µM) was determined as 0.428; in test [2] (first compound 5 µM) it was 0.359; in test [2] (first compound 15.81 µM) it was 0.479; in test [2] (first compound 50 µM), 0.366; in test [3] (first compound 0.5 µM), 0.765; in test [3] (first compound 1.581 µM) it was 0.684. In addition, the relative viability in test [3] (first compound 5 µM) worked out at 0.667; in test [3] (first compound 15.81 µM), 0.533; in test [3] (first compound 50 µM), 0.469; in test [4] (first compound 0.08 µM), 0.893; in test [4] (first compound 0.253 µM) it was 0.63; in test [4] (first compound 2.53 µM), 0.675. Besides, the relative viability in test [4] (first compound 8 µM) amounted to 0.879.
